Experiments:
Format in all cases: biochemical
[1] = molecular target: T1, JAK1 (Homo sapiens, UniProt P23458); test: JAK1 inhibition (Table 4); conditions: read-out: JAK1 Ki
T1 construct: made in house; host or cells: SF9 insect cells (baculovirus)

[2] = molecular target: T2, JAK3 (Homo sapiens, UniProt P52333); test: JAK3 inhibition (Table 4); conditions: read-out: JAK3 Ki
T2 construct: made in house; host or cells: SF9 insect cells (baculovirus)

[3] = molecular target: T3, TYK2 (Homo sapiens, UniProt P29597); test: TYK2 inhibition (Table 4)
T3 construct: made in house; host or cells: SF9 insect cells (baculovirus)
T3 sequence (P29597 873-1187): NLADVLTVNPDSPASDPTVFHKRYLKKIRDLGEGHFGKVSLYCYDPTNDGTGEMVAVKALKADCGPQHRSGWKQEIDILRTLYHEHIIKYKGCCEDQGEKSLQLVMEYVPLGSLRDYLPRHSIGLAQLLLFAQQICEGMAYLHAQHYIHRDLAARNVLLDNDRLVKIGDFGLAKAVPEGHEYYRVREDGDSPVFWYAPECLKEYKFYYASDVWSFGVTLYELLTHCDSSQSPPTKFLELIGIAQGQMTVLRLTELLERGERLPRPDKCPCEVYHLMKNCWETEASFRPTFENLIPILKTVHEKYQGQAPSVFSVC

[4] = molecular target: T4, JAK2 (Homo sapiens, UniProt O60674); test: JAK2 inhibition (Table 4); conditions: read-out: JAK2 Ki
T4 construct: made in house; host or cells: SF9 insect cells (baculovirus)
T4 sequence (O60674 812-1132): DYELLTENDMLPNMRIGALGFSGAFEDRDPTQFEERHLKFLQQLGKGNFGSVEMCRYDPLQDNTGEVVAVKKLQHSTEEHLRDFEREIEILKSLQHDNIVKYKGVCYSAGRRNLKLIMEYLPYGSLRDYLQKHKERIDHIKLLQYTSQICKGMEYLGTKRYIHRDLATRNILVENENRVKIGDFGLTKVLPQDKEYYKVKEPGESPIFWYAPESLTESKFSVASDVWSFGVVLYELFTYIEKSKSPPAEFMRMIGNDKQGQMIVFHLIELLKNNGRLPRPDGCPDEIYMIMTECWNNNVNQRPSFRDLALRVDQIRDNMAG

T1 sequence (P23458 852-1154): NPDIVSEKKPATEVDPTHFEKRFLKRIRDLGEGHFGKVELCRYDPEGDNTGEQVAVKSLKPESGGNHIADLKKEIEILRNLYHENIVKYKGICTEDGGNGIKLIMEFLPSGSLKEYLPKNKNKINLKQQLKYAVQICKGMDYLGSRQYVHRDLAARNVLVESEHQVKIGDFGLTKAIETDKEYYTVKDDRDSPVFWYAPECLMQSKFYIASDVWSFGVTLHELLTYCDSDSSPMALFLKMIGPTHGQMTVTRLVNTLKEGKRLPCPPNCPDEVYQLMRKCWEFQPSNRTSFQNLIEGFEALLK
T2 sequence (P52333 783-1124): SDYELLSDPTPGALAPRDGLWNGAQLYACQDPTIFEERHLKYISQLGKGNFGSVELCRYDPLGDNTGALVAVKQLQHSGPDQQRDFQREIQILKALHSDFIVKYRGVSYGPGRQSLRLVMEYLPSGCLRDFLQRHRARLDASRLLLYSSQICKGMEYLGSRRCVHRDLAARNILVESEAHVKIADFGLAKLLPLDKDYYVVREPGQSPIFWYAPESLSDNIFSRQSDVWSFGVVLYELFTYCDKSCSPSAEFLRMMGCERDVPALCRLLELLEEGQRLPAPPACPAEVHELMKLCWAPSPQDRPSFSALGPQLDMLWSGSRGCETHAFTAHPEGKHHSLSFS

CC(=O)N1CCC(N[C@H]2CC[C@H](n3cnc4cnc5[nH]ccc5c43)CC2)CC1 [Example 555, trans 1-{4-[4-(6H-1,3,5,6-Tetraaza-as-indacen-1-yl)-cyclohexylamino]-piperidin-1-yl}-ethanone]
Ki [1]: 33 nM
Ki [2]: 491 nM
Ki [3]: 302 nM
Ki [4]: 276 nM

CC(C)(C)OC(=O)N1CCC[C@@H]1CN[C@H]1CC[C@H](n2cnc3cnc4[nH]ccc4c32)CC1 [Example 556, trans (R)-2-{[4-(6H-1,3,5,6-Tetraaza-as-indacen-1-yl)-cyclohexylamino]-methyl}-pyrrolidine-1-carboxylic acid tert-butyl ester]
Ki [1]: 60.4 nM
Ki [2]: 894 nM
Ki [3]: 1460 nM
Ki [4]: 190 nM

CC(C)(C)OC(=O)N1CC(CN[C@H]2CC[C@H](n3cnc4cnc5[nH]ccc5c43)CC2)C1 [Example 557, trans 3-{[4-(6H-1,3,5,6-Tetraaza-as-indacen-1-yl)-cyclohexylamino]-methyl}-azetidine-1-carboxylic acid tert-butyl ester]
Ki [1]: 21.4 nM
Ki [2]: 310 nM
Ki [3]: 443 nM
Ki [4]: 136 nM

CC(C)(C)OC(=O)N1CCC(N[C@H]2CC[C@H](n3cnc4cnc5[nH]ccc5c43)CC2)CC1 [Example 558, trans 4-[4-(6H-1,3,5,6-Tetraaza-as-indacen-1-yl)-cyclohexylamino]-piperidine-1-carboxylic acid tert-butyl ester]
Ki [1]: 6.94 nM
Ki [2]: 110 nM
Ki [3]: 39.2 nM
Ki [4]: 60.9 nM

CC(C)(C)OC(=O)N1CCCC[C@@H]1CN[C@H]1CC[C@H](n2cnc3cnc4[nH]ccc4c32)CC1 [Example 563, trans (R)-2-{[4-(6H-1,3,5,6-Tetraaza-as-indacen-1-yl)-cyclohexylamino]-methyl}-piperidine-1-carboxylic acid tert-butyl ester]
Ki [1]: 91 nM
Ki [2]: 2360 nM
Ki [3]: 3320 nM
Ki [4]: 611 nM

CC(C)(C)OC(=O)N1CCC[C@H](CN[C@H]2CC[C@H](n3cnc4cnc5[nH]ccc5c43)CC2)C1 [Example 565, trans (R)-3-{[4-(6H-1,3,5,6-Tetraaza-as-indacen-1-yl)-cyclohexylamino]-methyl}-piperidine-1-carboxylic acid tert-butyl ester]
Ki [1]: 90.8 nM
Ki [2]: 1050 nM
Ki [3]: 1950 nM
Ki [4]: 397 nM

CC(C)(C)OC(=O)N1CCC[C@@H](CN[C@H]2CC[C@H](n3cnc4cnc5[nH]ccc5c43)CC2)C1 [Example 566, trans (S)-3-{[4-(6H-1,3,5,6-Tetraaza-as-indacen-1-yl)-cyclohexylamino]-methyl}-piperidine-1-carboxylic acid tert-butyl ester]
Ki [1]: 20.5 nM
Ki [2]: 498 nM
Ki [3]: 260 nM
Ki [4]: 186 nM

N#CCN1CCC(N[C@H]2CC[C@H](n3cnc4cnc5[nH]ccc5c43)CC2)CC1 [Example 568, trans {4-[4-(6H-1,3,5,6-Tetraaza-as-indacen-1-yl)-cyclohexylamino]-piperidin-1-yl}-acetonitrile]
Ki [1]: 2.91 nM
Ki [2]: 59.8 nM
Ki [3]: 65.2 nM
Ki [4]: 48.6 nM

CC(C)CN[C@H]1CC[C@H](n2cnc3cnc4[nH]ccc4c32)CC1 [Example 569, trans Isobutyl-[4-(6H-1,3,5,6-tetraaza-as-indacen-1-yl)-cyclohexyl]-amine]
Ki [1]: 12.7 nM
Ki [2]: 448 nM
Ki [3]: 254 nM
Ki [4]: 95.8 nM

O=C(N[C@H]1CC[C@H](n2cnc3cnc4[nH]ccc4c32)CC1)c1ccncc1 [Example 570, trans N-[4-(6H-1,3,5,6-Tetraaza-as-indacen-1-yl)-cyclohexyl]-isonicotinamide]
Ki [1]: 11.2 nM
Ki [2]: 116 nM
Ki [3]: 77.7 nM
Ki [4]: 10 nM

O=C(N[C@H]1CC[C@H](n2cnc3cnc4[nH]ccc4c32)CC1)C1CC1 [Example 572, trans Cyclopropanecarboxylic acid [4-(6H-1,3,5,6-tetraaza-as-indacen-1-yl)-cyclohexyl]-amide]
Ki [1]: 11.6 nM
Ki [2]: 201 nM
Ki [3]: 119 nM
Ki [4]: 27 nM

COCCC(=O)N[C@H]1CC[C@H](n2cnc3cnc4[nH]ccc4c32)CC1 [Example 573, trans 3-Methoxy-N-[4-(6H-1,3,5,6-tetraaza-as-indacen-1-yl)-cyclohexyl]-propionamide]
Ki [1]: 4.62 nM
Ki [2]: 69.5 nM
Ki [3]: 91.5 nM
Ki [4]: 10.7 nM

Cn1cncc1CN[C@H]1CC[C@H](n2cnc3cnc4[nH]ccc4c32)CC1 [Example 575, trans (3-Methyl-3H-imidazol-4-ylmethyl)-[4-(6H-1,3,5,6-tetraaza-as-indacen-1-yl)-cyclohexyl]-amine]
Ki [1]: 7.17 nM
Ki [2]: 206 nM
Ki [3]: 44.7 nM
Ki [4]: 34 nM

CC1(n2cnc3cnc4[nH]ccc4c32)CCN(C(=O)CC#N)CC1 [Example 579, 3-[4-Methyl-4-(6H-1,2,3,5,6-tetraaza-as-indacen-1-yl)-piperidin-1-yl]-3-oxo-propionitrile]
Ki [1]: 106 nM
Ki [2]: 1360 nM
Ki [3]: 329 nM
Ki [4]: 483 nM

Cc1nc2cnc3[nH]ccc3c2n1C1(C)CCN(S(C)(=O)=O)CC1 [Example 580, 1-(1-Methanesulfonyl-4-methyl-piperidin-4-yl)-2-methyl-1,6-dihydro-1,2,3,5,6-tetraaza-as-indacene]
Ki [1]: 1.45 nM
Ki [2]: 58.5 nM
Ki [3]: 41.3 nM
Ki [4]: 12.8 nM

Cc1nc2cnc3[nH]ccc3c2n1C1(C)CCN(CCC#N)CC1 [Example 581, 3-[4-Methyl-4-(2-methyl-6H-1,2,3,5,6-tetraaza-as-indacen-1-yl)-piperidin-1-yl]-propionitrile]
Ki [1]: 26.8 nM
Ki [2]: 280 nM
Ki [3]: 275 nM
Ki [4]: 114 nM

CC1(n2nnc3cnc4[nH]ccc4c32)CCN(CCC#N)CC1 [Example 582, 3-[4-Methyl-4-(6H-1,2,3,5,6-pentaaza-as-indacen-1-yl)-piperidin-1-yl]-propionitrile]
Ki [1]: 102 nM
Ki [2]: 592 nM
Ki [3]: 1050 nM
Ki [4]: 364 nM

CC1(n2nnc3cnc4[nH]ccc4c32)CCN(S(C)(=O)=O)CC1 [Example 583, 1-(1-Methanesulfonyl-4-methyl-piperidine-4-yl)-1,6-dihydro-1,2,3,5,6-pentaaza-as-indacen-1-yl]
Ki [1]: 4.36 nM
Ki [2]: 363 nM
Ki [3]: 173 nM
Ki [4]: 31.9 nM

CC1(n2nnc3cnc4[nH]ccc4c32)CCN(S(=O)(=O)c2cccnc2)CC1 [Example 584, 1-[4-Methyl-1-(pyridine-3-sulfonyl)-piperidin-4-yl]-1,6-dihydro-1,2,3,5,6-pentaaza-as-indacene]
Ki [1]: 37 nM
Ki [2]: 1320 nM
Ki [3]: 454 nM
Ki [4]: 105 nM

C[C@@H](O)c1nc2cnc3[nH]ccc3c2n1C1(C)CCN(S(C)(=O)=O)CC1 [Example 585, (R)-1-[1-(1-Methanesulfonyl-4-methyl-piperidinyl)-1,6-dihydro-1,2,3,5,6-tetraaza-as-indacen-2-yl]-ethanol]
Ki [1]: 9.46 nM
Ki [2]: 88.3 nM
Ki [3]: 67.3 nM
Ki [4]: 63.4 nM

CC(C)(C#N)CN1CCC(n2cnc3cnc4[nH]ccc4c32)CC1 [Example 586, 2,2-Dimethyl-3-[4-(6H-1,2,3,5,6-tetraaza-as-indacen-1-yl)-piperidin-1-yl]-propionitrile]
Ki [1]: 1.09 nM
Ki [2]: 23.3 nM
Ki [3]: 9.73 nM
Ki [4]: 1.6 nM

Cc1nc2cnc3[nH]ccc3c2n1C1CCN(CC(F)(F)F)CC1 [Example 587, 2-Methyl-1-[1-(2,2,2-trifluoro-ethyl)-piperidin-4-yl]-1,6-dihydro-1,2,3,5,6-tetraaza-as-indacene]
Ki [1]: 0.61 nM
Ki [2]: 8.35 nM
Ki [3]: 8.02 nM
Ki [4]: 2.16 nM

NCC(F)(F)c1nc2cnc3[nH]ccc3c2n1C1CCN(Cc2cccnc2)CC1 [Example 588, 2,2-Difluoro-2-[1-(1-pyridin-3-ylmethyl-piperidin-4-yl)-1,6-dihydro-1,2,3,5,6-tetraaza-as-indacen-2-yl]-ethylamine]
Ki [1]: 5.81 nM
Ki [2]: 5.73 nM
Ki [3]: 584 nM
Ki [4]: 13.3 nM

Cc1nc2cnc3[nH]ccc3c2n1[C@H]1CC[C@H](NC(C)CC#N)CC1 (stereo partly drawn) [Example 590, Trans 3-[4-(2-methyl-6H-1,2,3,5,6-tetraaza-as-indacen-1-yl)-cyclohexylamino]-butyronitrile]
Ki [1]: 2.74 nM
Ki [2]: 17.1 nM
Ki [3]: 43.1 nM
Ki [4]: 13.5 nM

Cc1nc2cnc3[nH]ccc3c2n1[C@H]1CC[C@H](NCC(F)(F)F)CC1 [Example 591, Trans[4-(2-methyl-6H-1,2,3,5,6-tetraaza-as-indacen-1-yl)-cyclohexyl]-(2,2,2-trifluoro-ethyl)-amine]
Ki [1]: 0.64 nM
Ki [2]: 13 nM
Ki [3]: 2.51 nM
Ki [4]: 1.87 nM

COCCNC(=O)N(C)[C@H]1CC[C@H](n2cnc3cnc4[nH]ccc4c32)CC1 [Example 592, Trans 3-(2-Methoxy-ethyl)-1-methyl-1-[4-(6H-1,2,3,5,6-tetraaza-as-indacen-1-yl)-cyclohexyl]-urea]
Ki [1]: 12 nM
Ki [2]: 344 nM
Ki [3]: 215 nM
Ki [4]: 15.5 nM

O=C(N[C@H]1CC[C@H](n2cnc3cnc4[nH]ccc4c32)CC1)N1CCOCC1 [Example 593, Trans Morpholine-4-carboxylic acid [4-(6H-1,2,3,5,6-tetraaza-as-indacen-1-yl)-cyclohexyl]-amide]
Ki [1]: 27.1 nM
Ki [2]: 316 nM
Ki [3]: 398 nM
Ki [4]: 36.5 nM
